{
  "source": "paper PMC10003360",
  "about": "“Antiviral Effect of Ginsenosides rk1 against Influenza a Virus Infection by Targeting the Hemagglutinin 1-Mediated Virus Attachment” (International Journal of Molecular Sciences, 2023)",
  "target": "T1, HA1 (Influenza A virus (A/Puerto Rico/8/1934(H1N1)), UniProt P03452)",
  "T1 construct": "gene HA; HA1 subunit alone, cut from precursor HA0; purchased from Sino Biological; immobilised on sensor chip",
  "T1 sequence (P03452 18-342 limits assumed)": "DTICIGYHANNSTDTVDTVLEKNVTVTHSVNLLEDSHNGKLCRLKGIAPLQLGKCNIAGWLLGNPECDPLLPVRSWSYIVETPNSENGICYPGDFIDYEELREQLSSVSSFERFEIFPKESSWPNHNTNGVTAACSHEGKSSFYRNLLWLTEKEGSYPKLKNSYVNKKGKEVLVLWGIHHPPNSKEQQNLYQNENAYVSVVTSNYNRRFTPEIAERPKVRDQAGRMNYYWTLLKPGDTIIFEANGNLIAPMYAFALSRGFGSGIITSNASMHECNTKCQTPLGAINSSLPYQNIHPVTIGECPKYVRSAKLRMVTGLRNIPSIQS",
  "experiment": "biochemical",
  "format": "binding",
  "data": [
    {"smiles": "C=C(CCC=C(C)C)[C@H]1CC[C@]2(C)[C@@H]1[C@H](O)C[C@@H]1[C@@]3(C)CC[C@H](O[C@@H]4O[C@H](CO)[C@@H](O)[C@H](O)[C@H]4O[C@@H]4O[C@H](CO)[C@@H](O)[C@H](O)[C@H]4O)C(C)(C)[C@@H]3CC[C@]12C", "note": "[G-rk1, ginsenoside rk1]", "values": [
      {"measurement": "Kd", "result": 93.3, "unit": "nM"}
    ]}
  ]
}
